In US8354416B2 (Glaxo Group Limited, priority 2005, dated 2013):
Where a name gives a salt, the structure may show the parent alone.

Tested on: influx of neutrophils to the lung in LPS-challenged rats
Assay: Rat LPS neutrophilia model
Type: in vivo
Details: intratracheal, LPS aerosol 100 ug/ml, in at least one of the range of conditions tested, significance p<0.05
Method: Rat LPS Neutrophilia Model
The effect of compounds on the influx of neutrophils to the lung in LPS-challenged rats is evaluated as follows. The test compound is suspended in one of the following solutions: 0.5% tween 80/PBS, 0.5% tween 80/saline, 10% EtOH/saline (with pH adjusted to 2.0, or 8.0 with HCl, or unadjusted), Saline (pH 2.0, 6.5 or 8.0, 0.5% Tragacanth, 1% DMSO/20% Encapsin/Saline, or acidified 5% Tragacanth. The suspension process may be aided by the use of a glass homogenizer. For intratracheal administration, the animals are anesthetized with inhaled isoflurane and placed in a supine position, the trachea is intubated with a steel gavage needle (1.5 inch, 22 gauge, small ball) or a Penn-Century Microsprayer Aerosolizer (model IA-1B) and 200 ul of dosing solution is delivered. The animals are visually monitored during the recovery process, which typically occurs within two minutes. It is noted that the test compounds may be alternatively administered via the microsprayer in a dry powder blend with a suitable excipient, such as lactose.
Rats treated with compound or vehicle (15 min-24 hours pretreatment) are exposed to an LPS aerosol (100 ug/ml) for 15 min. Four hours later the rats are euthanized with pentobarbital (100 mg/kg, i.p.) and the airways are lavaged with 5 washes of 5 ml of phosphate buffered saline. The harvested cells are stained (Diffquick) and counted to determine total and differential cell data. […] Inhibition of neutrophil levels relative to no compound controls is calculated based on the differential counts.
The data is obtained as % inhibition using a particular concentration and pretreat time.

| Structure (SMILES) | inhibition of neutrophilia (neutrophil levels in airway lavage relative to no compound controls) |
| --- | --- |
| Cc1ccc(NC(=O)c2ccsc2)cc1-c1nc(NC2CC(C)(C)NC(C)(C)C2)nc2c1ccc(=O)n2-c1c(F)cccc1F [31(e), N-(3-{8-(2,6-difluorophenyl)-7-oxo-2-[(2,2,6,6-tetramethyl-4-piperidinyl)amino]-7,8-dihydropyrido[2,3-d]pyrimidin-4-yl}-4-methylphenyl)-3-thiophenecarboxamide] | statistically significant inhibition of neutrophilia |
| Cc1ccc(C(=O)Nc2nccs2)cc1-c1nc(NCc2ncc[nH]2)nc2c1ccc(=O)n2-c1c(F)cccc1F [79(c), 3-{8-(2,6-difluorophenyl)-2-[(1H-imidazol-2-ylmethyl)amino]-7-oxo-7,8-dihydropyrido[2,3-d]pyrimidin-4-yl}-4-methyl-N-1,3-thiazol-2-ylbenzamide] | statistically significant inhibition of neutrophilia |
| Cc1ccc(C(=O)NC(C)C)cc1-c1nc(NCCN(C)C)nc2c1ccc(=O)n2-c1c(F)cccc1F [Example 117, 3-(8-(2,6-difluorophenyl)-2-{[2-(dimethylamino)ethyl]amino}-7-oxo-7,8-dihydropyrido[2,3-d]pyrimidin-4-yl)-4-methyl-N-(1-methylethyl)benzamide] | statistically significant inhibition of neutrophilia |
| Cc1ccc(C(=O)NC2CCCC2)cc1-c1nc(N2CCC(N)CC2)nc2c1ccc(=O)n2-c1c(F)cccc1F [Example 70, 3-[2-(4-amino-1-piperidinyl)-8-(2,6-difluorophenyl)-7-oxo-7,8-dihydropyrido[2,3-d]pyrimidin-4-yl]-N-cyclopentyl-4-methylbenzamide] | statistically nonsignificant inhibition of neutrophilia |
| CCCNC(=O)c1ccc(C)c(-c2nc(NCCN(C)C)nc3c2ccc(=O)n3-c2c(F)cccc2F)c1 [Example 105, 3-(8-(2,6-difluorophenyl)-2-{[2-(dimethylamino)ethyl]amino}-7-oxo-7,8-dihydropyrido[2,3-d]pyrimidin-4-yl)-4-methyl-N-propylbenzamide] | statistically significant inhibition of neutrophilia |
| Cc1ccc(C(=O)NC2CC2)cc1-c1nc(N2CCC(N3CCC(C)CC3)CC2)nc2c1ccc(=O)n2-c1c(F)cccc1F [Example 178, N-cyclopropyl-3-[8-(2,6-difluorophenyl)-2-(4-methyl-1,4′-bipiperidin-1′-yl)-7-oxo-7,8-dihydropyrido[2,3-d]pyrimidin-4-yl]-4-methylbenzamide] | statistically nonsignificant inhibition of neutrophilia |
| Cc1ccc(NC(=O)c2cccc3cc[nH]c23)cc1-c1nc(NC(CO)CO)nc2c1ccc(=O)n2-c1c(F)cccc1F [Example 44, N-[3-(8-(2,6-difluorophenyl)-2-{[2-hydroxy-1-(hydroxymethyl)ethyl]amino}-7-oxo-7,8-dihydropyrido[2,3-d]pyrimidin-4-yl)-4-methylphenyl]-1H-indole-7-carboxamide trifluoroacetate] | statistically significant inhibition of neutrophilia |
| Cc1ccc(C(=O)Nc2ccc(F)cc2)cc1-c1nc(N2CCC(N)CC2)nc2c1ccc(=O)n2-c1c(F)cccc1F [Example 72, 3-[2-(4-amino-1-piperidinyl)-8-(2,6-difluorophenyl)-7-oxo-7,8-dihydropyrido[2,3-d]pyrimidin-4-yl]-N-(4-fluorophenyl)-4-methylbenzamide] | statistically significant inhibition of neutrophilia |
| Cc1ccc(C(=O)Nc2ccc(F)cc2)cc1-c1nc(NCc2ncc[nH]2)nc2c1ccc(=O)n2-c1c(F)cccc1F [Example 78, 3-{8-(2,6-difluorophenyl)-2-[(1H-imidazol-2-ylmethyl)amino]-7-oxo-7,8-dihydropyrido[2,3-d]pyrimidin-4-yl}-N-(4-fluorophenyl)-4-methylbenzamide] | statistically significant inhibition of neutrophilia |
| Cc1ccc(C(=O)Nc2nccs2)cc1-c1nc(NCCNC(C)C)nc2c1ccc(=O)n2-c1c(F)cccc1F [Example 103, 3-[8-(2,6-difluorophenyl)-2-({2-[(1-methylethyl)amino]ethyl}amino)-7-oxo-7,8-dihydropyrido[2,3-d]pyrimidin-4-yl]-4-methyl-N-1,3-thiazol-2-ylbenzamide] | statistically significant inhibition of neutrophilia |
| Cc1ccc(C(=O)NC2CC2)cc1-c1nc(NCc2ncc[nH]2)nc2c1ccc(=O)n2-c1c(F)cccc1F [Example 23, N-cyclopropyl-3-{8-(2,6-difluorophenyl)-2-[(1H-imidazol-2-ylmethyl)amino]-7-oxo-7,8-dihydropyrido[2,3-d]pyrimidin-4-yl}-4-methylbenzamide] | statistically nonsignificant inhibition of neutrophilia |
| CCN(CC)CCCNc1nc(-c2cc(C(=O)NC3CC3)cc(F)c2C)c2ccc(=O)n(-c3c(F)cccc3F)c2n1 [Example 185, N-cyclopropyl-3-[2-{[3-(diethylamino)propyl]amino}-8-(2,6-difluorophenyl)-7-oxo-7,8-dihydropyrido[2,3-d]pyrimidin-4-yl]-5-fluoro-4-methylbenzamide] | statistically nonsignificant inhibition of neutrophilia |
| CNCCNc1nc(-c2cc(C(=O)Nc3ccc(F)cc3)ccc2C)c2ccc(=O)n(-c3c(F)cccc3F)c2n1 [Example 60, 3-(8-(2,6-difluorophenyl)-2-{[2-(methylamino)ethyl]amino}-7-oxo-7,8-dihydropyrido[2,3-d]pyrimidin-4-yl)-N-(4-fluorophenyl)-4-methylbenzamide] | statistically significant inhibition of neutrophilia |
| CNCCNc1nc(-c2cc(C(=O)NCCc3ccccc3)ccc2C)c2ccc(=O)n(-c3c(F)cccc3F)c2n1 [Example 29, 3-(8-(2,6-difluorophenyl)-2-{[2-(methylamino)ethyl]amino}-7-oxo-7,8-dihydropyrido[2,3-d]pyrimidin-4-yl)-4-methyl-N-(2-phenylethyl)benzamide] | statistically significant inhibition of neutrophilia |
| CCN(CC)CCCNc1nc(-c2cc(C(=O)Nc3ccc(F)cc3)ccc2C)c2ccc(=O)n(-c3c(F)cccc3F)c2n1 [Example 160, 3-[2-{[3-(diethylamino)propyl]amino}-8-(2,6-difluorophenyl)-7-oxo-7,8-dihydropyrido[2,3-d]pyrimidin-4-yl]-N-(4-fluorophenyl)-4-methylbenzamide] | statistically significant inhibition of neutrophilia |
| Cc1ccc(C(=O)Nc2nccs2)cc1-c1nc(NCCN(C)C)nc2c1ccc(=O)n2-c1c(F)cccc1F [Example 109, 3-(8-(2,6-difluorophenyl)-2-{[2-(dimethylamino)ethyl]amino}-7-oxo-7,8-dihydropyrido[2,3-d]pyrimidin-4-yl)-4-methyl-N-1,3-thiazol-2-ylbenzamide] | statistically significant inhibition of neutrophilia |
| CCN(CC)CCCNc1nc(-c2cc(C(=O)N[C@@H](C)c3ccccc3)ccc2C)c2ccc(=O)n(-c3c(F)cccc3F)c2n1 [Example 149, 3-[2-{[3-(diethylamino)propyl]amino}-8-(2,6-difluorophenyl)-7-oxo-7,8-dihydropyrido[2,3-d]pyrimidin-4-yl]-4-methyl-N-[(1S)-1-phenylethyl]benzamide] | inactive |
| Cc1ccc(C(=O)Nc2nccs2)cc1-c1nc(NC2CC(C)(C)NC(C)(C)C2)nc2c1ccc(=O)n2-c1c(F)cccc1F [Example 67, 3-{8-(2,6-difluorophenyl)-7-oxo-2-[(2,2,6,6-tetramethyl-4-piperidinyl)amino]-7,8-dihydropyrido[2,3-d]pyrimidin-4-yl}-4-methyl-N-1,3-thiazol-2-ylbenzamide] | statistically nonsignificant inhibition of neutrophilia |
| Cc1ccc(C(=O)NC2CCC2)cc1-c1nc(N2CCC(N3CCC(C)CC3)CC2)nc2c1ccc(=O)n2-c1c(F)cccc1F [Example 175, N-cyclobutyl-3-[8-(2,6-difluorophenyl)-2-(4-methyl-1,4′-bipiperidin-1′-yl)-7-oxo-7,8-dihydropyrido[2,3-d]pyrimidin-4-yl]-4-methylbenzamide] | inactive |
| Cc1ccc(C(=O)NCC2CC2)cc1-c1nc(N2CCC(N)CC2)nc2c1ccc(=O)n2-c1c(F)cccc1F [Example 27, 3-[2-(4-amino-1-piperidinyl)-8-(2,6-difluorophenyl)-7-oxo-7,8-dihydropyrido[2,3-d]pyrimidin-4-yl]-N-(cyclopropylmethyl)-4-methylbenzamide] | statistically significant inhibition of neutrophilia |
